Tests used:
NAMPT [1] = molecular target: T1, NAMPT (Homo sapiens, UniProt P43490); assay: TR-FRET Binding Assay of NAMPT with PRPP; conditions: 2 nM NAMPT, 2 nM probe, 200 µM PRPP and 2.5 mM ATP, equilibrated 16 hours
Method: Time-Resolved Fluorescence Resonance Energy Transfer (TR-FRET) Binding Assay of NAMPT with PRPP
Compound handling and data processing were identical to the assay in the absence of substrates (above). Final concentrations were 1× assay buffer, 2% DMSO, 2 nM NAMPT, 2 nM probe, 1 nM Tb-anti-His antibody (Invitrogen #PV5895), 200 µM PRPP and 2.5 mM ATP. Reactions were equilibrated for 16 hours prior to measurement to allow for potential enzymatic modification of test compounds.

NAMPT [2] = molecular target: T1, NAMPT; assay: Time-Resolved Fluorescence Resonance Energy Transfer (TR-FRET) Binding Assay of NAMPT; conditions: 6.8 nM NAMPT, 200 nM probe, equilibrated 3 hours, no substrates
Outline: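 IC50s come from four-parameter logistic fits of control-normalized Em520/Em495 TR-FRET ratios (Ex 337 nm) against compound concentration. Before reading, enzyme, probe, antibody and compound equilibrated for 3 h at room temperature.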

PC3 cells = assay: NAMPT Cell Proliferation Assay (Cell Titer Glo); assay type: cell-based; conditions: Homo sapiens, PC-3, 120 h, incubated 5 days, cell viability
Outline: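 Viability measured by Cell Titer Glo luminescence after 5-day exposure of attached PC3 cells to compound, dosed as 10-fold serial dilutions ([…]) in RPMI/10% FBS at 37 °C and 5% CO2. Percent inhibition fitted to sigmoidal dose-response curves for IC50.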

T1 sequence (P43490 whole entry): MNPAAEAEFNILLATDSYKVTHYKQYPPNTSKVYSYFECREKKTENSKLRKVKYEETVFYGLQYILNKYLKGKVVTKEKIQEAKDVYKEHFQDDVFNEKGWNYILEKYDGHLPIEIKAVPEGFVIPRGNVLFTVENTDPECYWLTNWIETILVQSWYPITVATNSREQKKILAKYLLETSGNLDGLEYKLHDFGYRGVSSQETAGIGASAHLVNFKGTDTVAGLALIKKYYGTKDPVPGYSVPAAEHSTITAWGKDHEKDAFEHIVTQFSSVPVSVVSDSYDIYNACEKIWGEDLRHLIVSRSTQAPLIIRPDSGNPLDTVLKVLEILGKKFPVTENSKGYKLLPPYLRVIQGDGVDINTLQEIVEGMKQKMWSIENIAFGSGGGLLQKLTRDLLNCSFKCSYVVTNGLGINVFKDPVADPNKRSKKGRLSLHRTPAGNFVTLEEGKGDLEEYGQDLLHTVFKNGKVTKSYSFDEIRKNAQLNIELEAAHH

Row | Structure (SMILES) | IC50 (NAMPT [1]) [nM] | IC50 (NAMPT [2]) [nM] | IC50 (PC3 cells) [nM]
1 | CC(C)(C)OC(=O)N1CCC(CCCCNC(=O)N2CC(c3cccnc3)C2)CC1 [Example 15, tert-butyl 4-[4-({[3-(pyridin-3-yl)azetidin-1-yl]carbonyl}amino)butyl]piperidine-1-carboxylate] | 0.917 | 307 | 99.9
2 | CCCC(=O)N1CCC(c2ccc(NC(=O)N3CC(c4cccnc4)C3)cc2)CC1 [Example 172, N-[4-(1-butanoylpiperidin-4-yl)phenyl]-3-(pyridin-3-yl)azetidine-1-carboxamide] | 0.206 | 5.65 | 34.5
3 | O=C1CC[C@@H](C(=O)N2CC[C@@H](Oc3ccc(NC(=O)N4CC(c5cccnc5)C4)cc3)C2)N1 [Example 313, N-(4-{[(3R)-1-(5-oxo-L-prolyl)pyrrolidin-3-yl]oxy}phenyl)-3-(pyridin-3-yl)azetidine-1-carboxamide] | 0.187 | 369 | 4590
4 | O=C(Nc1ccc(C2CCN(C(=O)[C@H]3CCCO3)C2)cc1)N1CC(c2cccnc2)C1 (stereo partly drawn) [Example 67, 3-(pyridin-3-yl)-N-(4-{1-[(2R)-tetrahydrofuran-2-ylcarbonyl]pyrrolidin-3-yl}phenyl)azetidine-1-carboxamide] | 0.171 | 173 | 78.5
5 | O=C(CC1CCCCC1)N1CC(Oc2ccc(NC(=O)N3CC(c4cccnc4)C3)cc2)C1 [Example 138, N-(4-{[1-(cyclohexylacetyl)azetidin-3-yl]oxy}phenyl)-3-(pyridin-3-yl)azetidine-1-carboxamide] | 0.596 | 11.4 | 8.38
6 | CCC(=O)N1CCC(c2ccc(NC(=O)N3CC(c4cccnc4)C3)cc2)C1 (stereo not drawn) [Example 279, N-[4-(1-propanoylpyrrolidin-3-yl)phenyl]-3-(pyridin-3-yl)azetidine-1-carboxamide] | 0.204 | 92.1 | 47.6
7 | COCCOCC(=O)N1CCC(c2ccc(NC(=O)N3CC(c4cccnc4)C3)cc2)CC1 [Example 176, N-(4-{1-[(2-methoxyethoxy)acetyl]piperidin-4-yl}phenyl)-3-(pyridin-3-yl)azetidine-1-carboxamide] | 0.35 | 65.5 | 88.9
8 | O=C(CC1CC1)N1CC(Oc2ccc(NC(=O)N3CC(c4cccnc4)C3)cc2)C1 [Example 114, N-(4-{[1-(cyclopropylacetyl)azetidin-3-yl]oxy}phenyl)-3-(pyridin-3-yl)azetidine-1-carboxamide] | 0.189 | 15.8 | 8.11
9 | CCCC(=O)N1CC[C@H](Oc2ccc(NC(=O)N3CC(c4cccnc4)C3)cc2)C1 [Example 99, N-(4-{[(3S)-1-butanoylpyrrolidin-3-yl]oxy}phenyl)-3-(pyridin-3-yl)azetidine-1-carboxamide] | 0.414 | 223 | 49.3
10 | O=C(Nc1ccc(C2CN(C(=O)c3ccoc3)C2)cc1)N1CC(c2cccnc2)C1 [Example 216, N-{4-[1-(furan-3-ylcarbonyl)azetidin-3-yl]phenyl}-3-(pyridin-3-yl)azetidine-1-carboxamide] | 0.256 | 18.4 | 20.5
11 | CC(C)(C)OC(=O)N1CCC(c2ccc(NC(=O)N3CC(c4cnccc4Cl)C3)cc2)CC1 [Example 113, tert-butyl 4-[4-({[3-(4-chloropyridin-3-yl)azetidin-1-yl]carbonyl}amino)phenyl]piperidine-1-carboxylate] | 14.7 | 75.8 | 113
12 | O=C(CC1CC2CCC1C2)N1CCC(Oc2ccc(NC(=O)N3CC(c4cccnc4)C3)cc2)C1 (stereo not drawn) [Example 299, N-(4-{[1-(bicyclo[2.2.1]hept-2-ylacetyl)pyrrolidin-3-yl]oxy}phenyl)-3-(pyridin-3-yl)azetidine-1-carboxamide] | 0.451 | 64.9 | 14.6
13 | COCC(=O)N1CC(c2ccc(NC(=O)N3CC(c4cccnc4)C3)cc2)C1 [Example 218, N-{4-[1-(methoxyacetyl)azetidin-3-yl]phenyl}-3-(pyridin-3-yl)azetidine-1-carboxamide] | 0.451 | 171 | 188
14 | CC(C)(O)C(=O)N1CC[C@H](Oc2ccc(NC(=O)N3CC(c4cccnc4)C3)cc2)C1 [Example 94, N-(4-{[(3S)-1-(2-hydroxy-2-methylpropanoyl)pyrrolidin-3-yl]oxy}phenyl)-3-(pyridin-3-yl)azetidine-1-carboxamide] | 0.213 | 488 | 598
15 | CC(C)CC(=O)N1CCC(c2ccc(NC(=O)N3CC(c4cccnc4)C3)cc2)CC1 [Example 174, N-{4-[1-(3-methylbutanoyl)piperidin-4-yl]phenyl}-3-(pyridin-3-yl)azetidine-1-carboxamide] | 0.325 | 20.8 | 24.4
16 | O=C(Nc1ccc(C2CCN(C(=O)C3CC3)C2)cc1)N1CC(c2cccnc2)C1 (stereo not drawn) [Example 73, N-{4-[1-(cyclopropylcarbonyl)pyrrolidin-3-yl]phenyl}-3-(pyridin-3-yl)azetidine-1-carboxamide] | 0.663 | 156 | 84.5
17 | CC(C)CC(=O)N1CC(Oc2ccc(NC(=O)N3CC(c4cccnc4)C3)cc2)C1 [Example 132, N-(4-{[1-(3-methylbutanoyl)azetidin-3-yl]oxy}phenyl)-3-(pyridin-3-yl)azetidine-1-carboxamide] | 0.634 | 19.1 | 7.77

Other lines, results leading:

Row | IC50 (NAMPT [1]) [nM] | IC50 (NAMPT [2]) [nM] | IC50 (PC3 cells) [nM] | Structure (SMILES)
18 | 0.679 | 865 | 664 | O=C(Nc1ccc(C2CN(CC3CCCO3)C2)cc1)N1CC(c2cccnc2)C1 (stereo not drawn) [Example 250, 3-(pyridin-3-yl)-N-{4-[1-(tetrahydrofuran-2-ylmethyl)azetidin-3-yl]phenyl}azetidine-1-carboxamide]
19 | 0.345 | 2.93 | 3.45 | Cc1ccsc1C(=O)N1CCC(c2ccc(NC(=O)N3CC(c4cccnc4)C3)cc2)CC1 [Example 186, N-(4-{1-[(3-methylthiophen-2-yl)carbonyl]piperidin-4-yl}phenyl)-3-(pyridin-3-yl)azetidine-1-carboxamide]
20 | 0.553 | 204 | 576 | CC(C)(O)C(=O)N1CC(c2ccc(NC(=O)N3CC(c4cccnc4)C3)cc2)C1 [Example 106, N-{4-[1-(2-hydroxy-2-methylpropanoyl)azetidin-3-yl]phenyl}-3-(pyridin-3-yl)azetidine-1-carboxamide]
21 | 0.421 | 92.2 | 73.1 | CC(C)(O)C(=O)N1CCC(c2ccc(NC(=O)N3CC(c4cccnc4)C3)cc2)C1 (stereo not drawn) [Example 70, N-{4-[1-(2-hydroxy-2-methylpropanoyl)pyrrolidin-3-yl]phenyl}-3-(pyridin-3-yl)azetidine-1-carboxamide]
22 | 0.376 | 28.1 | 8.69 | CC1(C(=O)N2CC(Oc3ccc(NC(=O)N4CC(c5cccnc5)C4)cc3)C2)CC1 [Example 135, N-[4-({1-[(1-methylcyclopropyl)carbonyl]azetidin-3-yl}oxy)phenyl]-3-(pyridin-3-yl)azetidine-1-carboxamide]
23 | 0.196 | 404 | 686 | O=C(Nc1ccc(O[C@H]2CCN(C(=O)[C@@H]3CCCO3)C2)cc1)N1CC(c2cccnc2)C1 [Example 90, 3-(pyridin-3-yl)-N-[4-({(3S)-1-[(2S)-tetrahydrofuran-2-ylcarbonyl]pyrrolidin-3-yl}oxy)phenyl]azetidine-1-carboxamide]
24 | 0.492 | 89.2 | 90.2 | CC1CC1C(=O)N1CCC(Oc2ccc(NC(=O)N3CC(c4cccnc4)C3)cc2)CC1 (stereo not drawn) [Example 35, N-[4-({1-[(2-methylcyclopropyl)carbonyl]piperidin-4-yl}oxy)phenyl]-3-(pyridin-3-yl)azetidine-1-carboxamide]
25 | 0.629 | 143 | 68.1 | CC(C)C(=O)N1CC(c2ccc(NC(=O)N3CC(c4cccnc4)C3)cc2)C1 [Example 101, N-{4-[1-(2-methylpropanoyl)azetidin-3-yl]phenyl}-3-(pyridin-3-yl)azetidine-1-carboxamide]
26 | 0.393 | 337 | 141 | O=C(CN1CCOCC1)N1CC[C@@H](Oc2ccc(NC(=O)N3CC(c4cccnc4)C3)cc2)C1 [Example 302, N-(4-{[(3R)-1-(morpholin-4-ylacetyl)pyrrolidin-3-yl]oxy}phenyl)-3-(pyridin-3-yl)azetidine-1-carboxamide]
27 | 0.196 | 8.17 | 19.5 | Cc1ccsc1C(=O)N1CCC(c2ccc(NC(=O)N3CC(c4cccnc4)C3)cc2)C1 (stereo not drawn) [Example 270, N-(4-{1-[(3-methylthiophen-2-yl)carbonyl]pyrrolidin-3-yl}phenyl)-3-(pyridin-3-yl)azetidine-1-carboxamide]
28 | 0.574 | 357 | 269 | O=C(CC1CCOCC1)N1CCC(Oc2ccc(NC(=O)N3CCN(c4cccnc4)CC3)cc2)CC1 [Example 162, 4-(pyridin-3-yl)-N-(4-{[1-(tetrahydro-2H-pyran-4-ylacetyl)piperidin-4-yl]oxy}phenyl)piperazine-1-carboxamide]
